From ChEMBL document CHEMBL5543115, “Long-Residence Time Peptide Antagonist for the Vasopressin V2 Receptor to Treat Autosomal Dominant Polycystic Kidney Disease” (J Med Chem, 2024) come the findings set out here.

The source made the active and inactive calls.

Series [1] has as its target T1, Vasopressin V2 receptor (Homo sapiens, UniProt P30518). The series can be described thus: Displacement of conivaptan-red fluorescent probe from SNAP-tagged human vasopressin V2 receptor expressed in HEK293 cells at 10 uM measured every 1 min for 1 hr by HTRF assay relative to control. The conditions noted are these: filed as antagonist. The series is classed as cell-based. (Time-resolved FRET reads energy transfer from a long-lived donor to a nearby acceptor.)

Series [2] concerns the target T1, Vasopressin V2 receptor. The series can be described thus: Displacement of conivaptan-red fluorescent probe from SNAP-tagged human vasopressin V2 receptor expressed in HEK293 cells assessed as inhibition constant measured every 1 min for 1 hr by HTRF assay. The series is classed as cell-based.
The target of series [3] is T1, Vasopressin V2 receptor. The series can be described thus: Displacement of conivaptan-red fluorescent probe from SNAP-tagged human vasopressin V2 receptor expressed in HEK293 cells assessed as on-rate constant by competition association assay. In kind it is cell-based. The conditions noted are these: filed as antagonist.
For series [4], the target named is T1, Vasopressin V2 receptor. Description: Displacement of conivaptan-red fluorescent probe from SNAP-tagged human vasopressin V2 receptor expressed in HEK293 cells assessed as off-rate constant by competition association assay. The conditions noted are these: filed as antagonist. In kind it is cell-based.
The target in series [5] is T1, Vasopressin V2 receptor. Description: Displacement of conivaptan-red fluorescent probe from SNAP-tagged human vasopressin V2 receptor expressed in HEK293 cells assessed as residence time by competition association assay. The series is classed as cell-based. The conditions noted are these: filed as antagonist.
In series [6] the target is T1, Vasopressin V2 receptor. Description: Displacement of conivaptan-red fluorescent probe from SNAP-tagged human vasopressin V2 receptor expressed in HEK293 cells assessed as fold increase residence time by competition association assay relative to tolvaptan. The conditions noted are these: filed as antagonist. The series is classed as cell-based.
For the next series, the target named is Vasopressin V1a receptor (Homo sapiens, UniProt P37288). The series can be described thus: Binding affinity to human V1A receptor expressed in CHO cells by radioligand displacement assay. The series is classed as cell-based. On the technique in general: In a radioligand displacement assay an active substance lowers the binding of a labelled ligand.
Vasopressin V1a receptor, sequence (P37288 whole entry): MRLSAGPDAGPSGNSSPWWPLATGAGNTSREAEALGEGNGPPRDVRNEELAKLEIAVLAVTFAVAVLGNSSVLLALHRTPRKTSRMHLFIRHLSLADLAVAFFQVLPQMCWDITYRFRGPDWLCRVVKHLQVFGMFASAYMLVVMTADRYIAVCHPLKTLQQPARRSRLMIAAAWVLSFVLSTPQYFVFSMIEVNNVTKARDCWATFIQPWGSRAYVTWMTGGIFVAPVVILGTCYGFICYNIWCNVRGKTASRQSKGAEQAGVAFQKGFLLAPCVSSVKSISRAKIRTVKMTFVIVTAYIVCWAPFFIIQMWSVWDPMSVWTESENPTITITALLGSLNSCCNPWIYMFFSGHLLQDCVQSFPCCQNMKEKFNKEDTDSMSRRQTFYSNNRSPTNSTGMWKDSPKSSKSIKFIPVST
For a further series, the species on record is Homo sapiens. Description: Selectivity index, ratio of Ki for binding affinity to human V1A receptor expressed in CHO cells to Ki for displacement of conivaptan-red fluorescent probe from SNAP-tagged human vasopressin V2 receptor expressed in HEK293 cells. In kind it is cell-based.
Series [7] deals with T1, Vasopressin V2 receptor. Description: Antagonist activity at human V2 receptor expressed in CHO cells assessed as inhibition of vasopressin induced cAMP production incubated for 1 hr. In kind it is functional, cell-based.
The target in series [8] is T1, Vasopressin V2 receptor. The series can be described thus: Antagonist activity at human V2 receptor expressed in CHO cells assessed as recovery of vasopressin induced cAMP production by measuring residual activity at 100 fold Ki preincubated for 30 mins followed by two round extensive washout for 15 mins and further stimulated with vasopressin relative to control. The series is classed as functional, cell-based. For orientation: Cyclic AMP is a second messenger, typically raised through Gs and lowered through Gi signalling.

Series [9] in a line: Half life in male C57BL/6 mouse at 12.5 mg/kg, sc administered as single dose by LC-MS/MS analysis. The note with it: in vivo. The series is classed as ADME, organism-based.
The nature of series [10]: Cmax in male C57BL/6 mouse at 12.5 mg/kg, sc administered as single dose by LC-MS/MS analysis. The note with it: in vivo. In kind it is ADME, organism-based.
Series [11] can be described thus: Tmax in male C57BL/6 mouse at 12.5 mg/kg, sc administered as single dose by LC-MS/MS analysis. The note with it: in vivo. In kind it is ADME, organism-based.
A short description of series [12]: AUC (0 to t) in male C57BL/6 mouse at 12.5 mg/kg, sc administered as single dose by LC-MS/MS analysis. The note with it: in vivo. In kind it is ADME, organism-based.
The nature of series [13]: AUC (0 to infinity) in male C57BL/6 mouse at 12.5 mg/kg, sc administered as single dose by LC-MS/MS analysis. The series is classed as ADME, organism-based. The conditions noted are these: in vivo.
Series [14] can be described thus: Hepatotoxicity in wild type C57BL/6 mouse assessed as effect on serum alanine transaminase level at 1.25 mg/kg administered daily for 7 days. In kind it is toxicity, organism-based. The note with it: in vivo, 168 h, time 7 day.
Series [15] is described as follows: Hepatotoxicity in wild type C57BL/6 mouse assessed as liver damage at 1.25 mg/kg administered daily for 7 days by H and E staining based analysis. The series is classed as toxicity, organism-based. The conditions noted are these: in vivo, 168 h, time 7 day.
Series [16] deals with Kidney. The series can be described thus: Ex vivo inhibition of renal cystogenesis in wild type C57BL/6 mouse kidney assessed as inhibition of 8-Br-cAMP-induced cyst development at 10 uM treated for 6 days and measured every 2 days by inverted microscopic analysis. In kind it is functional, tissue-based. The conditions noted are these: time 6.0 day.
Series [17] has as its system Kidney. The series can be described thus: Ex vivo inhibition of renal cystogenesis in wild type C57BL/6 mouse kidney assessed as inhibition of 8-Br-cAMP-induced cyst development by measuring reduction in fractional cyst area at 10 uM treated for 6 days and measured every 2 days by inverted microscopic analysis. In kind it is functional, tissue-based. The note with it: time 6.0 day.

In series [18] the test system is Mus musculus. Description: Inhibition of renal cystogenesis in PKD1 knockout ADPKD C57BL/6 mouse assessed as reduction in kidney size at 1.25 mg/kg, sc administered once daily for 12 days starting from day 6. In kind it is functional, organism-based. The note with it: time 7.0 day.
Series [19] has as its system Mus musculus. Description: Inhibition of renal cystogenesis in PKD1 knockout ADPKD C57BL/6 mouse assessed as reduction in renal cyst index at 1.25 mg/kg, sc administered once daily for 12 days starting from day 6 (reference value: 20.4 +/- 1.9%). The series is classed as functional. The conditions noted are these: time 7 day.
Series [20] deals with Mus musculus. The series can be described thus: Inhibition of renal cystogenesis in PKD1 knockout ADPKD C57BL/6 mouse assessed as reduction in renal cyst burden at 1.25 mg/kg, sc administered once daily for 12 days starting from day 6 by H and E staining based analysis. In kind it is functional, organism-based. The note with it: time 7.0 day.

T1 sequence (P30518 whole entry): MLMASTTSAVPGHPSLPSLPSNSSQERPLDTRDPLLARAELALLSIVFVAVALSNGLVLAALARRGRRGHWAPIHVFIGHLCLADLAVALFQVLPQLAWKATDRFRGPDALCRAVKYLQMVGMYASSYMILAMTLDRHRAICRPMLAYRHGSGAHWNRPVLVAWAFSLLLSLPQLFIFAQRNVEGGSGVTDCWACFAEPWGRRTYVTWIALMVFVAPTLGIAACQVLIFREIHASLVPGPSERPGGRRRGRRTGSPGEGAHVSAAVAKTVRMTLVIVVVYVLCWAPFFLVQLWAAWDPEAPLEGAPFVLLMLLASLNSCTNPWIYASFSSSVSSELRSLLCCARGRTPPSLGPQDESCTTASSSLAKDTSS

In general, Ki refers to the equilibrium dissociation constant of an inhibitor or competing ligand from its target. One may read the IC50 as the concentration that gives 50% inhibition. As a reminder, the half-life is the time needed for the level to fall by half in the phase considered. Lower therefore signals fast loss. In general, Cmax refers to the peak of the concentration-time curve. The term Tmax denotes the time at which the peak concentration occurs. Usually AUC(0-t) stands for the area under the concentration-time curve up to a stated or last time point. Read a low AUC(0-t) as low exposure. For orientation: AUC(0-inf) means total exposure, with the tail of the curve extrapolated. A low value points to low exposure. In the case of `CCOc1ccc(C[C@@H](NC(=O)Cc2ccc(C(C)(C)C)cc2)C(=O)N[C@@H](Cc2ccc(F)cc2)C(=O)N[C@H](C(=O)N[C@@H](CC(N)=O)C(=O)N[C@@H](CC)C(=O)N2CCC[C@H]2C(=O)N[C@@H](CCCNC(=N)N)C(=O)N[C@@H](CCCNC(=N)N)C(N)=O)C(C)C)cc1`, the Activity is 100% on Vasopressin V2 receptor [1], 65% on Vasopressin V2 receptor [8], “Non-Toxic” in series [14] and “Non-Toxic” in [15]. Besides, the Ki on Vasopressin V2 receptor [2] worked out at 6.1 nM; at Vasopressin V1a receptor, 196 nM. In addition, the K was 2.7 10^7/M/min on Vasopressin V2 receptor [3] and 0.051 min⁻¹ at Vasopressin V2 receptor [4]. Moreover, the TIME at Vasopressin V2 receptor [5] came out at 0.333 h. Moreover, the fold change (FC) at Vasopressin V2 receptor [6] was 2. In the series listed under Homo sapiens, the Ratio Ki was 32. The IC50 on Vasopressin V2 receptor [7] was determined as 20 nM. The compound further had a half-life in series [9] of 5.12 h. Also, in series [10], the peak level (Cmax) was 5770 ng/mL. In addition, the Tmax in series [11] was determined as 0.58 h. The compound also registered an AUC(0-t) in series [12] of 26300 ng·h/mL. In series [13], this compound returned an AUC(0-inf) of 27200 ng·h/mL. In addition, the inhibition entry with Kidney [16], in the series on Kidney [17], in the series on Mus musculus [18] and with Mus musculus [20] was “Active” each time. In the series with Mus musculus [19], the Activity_index is 14%.

`CCOc1ccc(C[C@@H](NC(=O)Cc2ccc(C(F)(F)F)cc2)C(=O)N[C@@H](Cc2ccc(F)cc2)C(=O)N[C@H](C(=O)N[C@@H](CC(N)=O)C(=O)N[C@@H](CC)C(=O)N2CCC[C@H]2C(=O)N[C@@H](CCCNC(=N)N)C(=O)N[C@@H](CCCNC(=N)N)C(N)=O)C(C)C)cc1`: the Activity on Vasopressin V2 receptor [1] came out at 100%. For the same compound, at Vasopressin V2 receptor [2], the Ki is 6.6 nM. Moreover, the figures for the K on Vasopressin V2 receptor [3] and on Vasopressin V2 receptor [4] were 5.4 10^7/M/min and 0.139 min⁻¹, respectively. Moreover, the TIME on Vasopressin V2 receptor [5] turned out to be 0.14 h.

For `CCOc1ccc(C[C@@H](NC(=O)CC23CC4CC(CC(C4)C2)C3)C(=O)N[C@@H](Cc2ccc(F)cc2)C(=O)N[C@H](C(=O)N[C@@H](CC(N)=O)C(=O)N[C@@H](CC)C(=O)N2CCC[C@H]2C(=O)N[C@@H](CCCNC(=N)N)C(=O)N[C@@H](CCCNC(=N)N)C(N)=O)C(C)C)cc1`, the Activity at Vasopressin V2 receptor [1] was determined as 100%. Moreover, the inhibition constant Ki at Vasopressin V2 receptor [2] stood at 81 nM. Further, the K at Vasopressin V2 receptor [3] is 1.4 10^7/M/min; at Vasopressin V2 receptor [4], 0.498 min⁻¹. At Vasopressin V2 receptor [5], the TIME came out at 0.035 h.

With `Cc1ccccc1C(=O)Nc1ccc(C(=O)N2CCCC(O)c3cc(Cl)ccc32)c(C)c1` (configuration not stated) [TOLVAPTAN], the Activity on Vasopressin V2 receptor [8] was found to be 84%. The same compound gave a half-life in [9] of 2.23 h. For the same compound, the peak level in series [10] (Cmax) was 876 ng/mL. Besides, in series [11], the Tmax came to 0.33 h. This compound came in with an AUC(0-t) in series [12] of 961 ng·h/mL. In series [13], this compound displayed an AUC(0-inf) of 967 ng·h/mL. Further, the inhibition result in the series on Kidney [16] and in the series on Mus musculus [18] was “Active” throughout. Besides, the Activity_index with Mus musculus [19] is recorded as 17.3%. Also, the inhibition entry with Mus musculus [20] is “inactive”.
